Measured values published in the supplement of paper PMC10307832.

Columns and labels:
Assay in all cases: relative viability (nuclei count vs DMSO), 5 days (fraction); higher = more cells survive
Kobe2602 + Tozasertib = compound: C1=CC(=CC=C1NC(=S)NNC2=C(C=C(C=C2[N+](=O)[O-])C(F)(F)F)[N+](=O)[O-])F [Kobe2602] + Cc1cc(Nc2cc(N3CCN(C)CC3)nc(Sc3ccc(NC(=O)C4CC4)cc3)n2)n[nH]1 [Tozasertib] (partner 0.1 µM)
Outline: (§1)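 Nuclei were stained with Hoechst during a one-step fixation (final 0.05% Triton X-100, 1% formaldehyde, 1 ug/ml Hoechst) carried out 5 days after dosing, then counted on 4× images. The cells, lung cancer lines in 1536-well plates, had been dosed by pin tool the day after seeding with one drug alone or a fixed anchor-drug dose plus five library-drug doses (not always all listed) in √10 steps. Relative viability is the nuclei count in treated wells divided by that in vehicle wells, and each value is the median of duplicate plates.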

Cabozantinib + OSI-027 = compound: COc1cc2nccc(Oc3ccc(NC(=O)C4(C(=O)Nc5ccc(F)cc5)CC4)cc3)c2cc1OC [Cabozantinib] + COc1cccc2cc(-c3nc([C@H]4CC[C@H](C(=O)O)CC4)n4ncnc(N)c34)[nH]c12 [OSI-027] (partner 0.5 µM)
Outline: as §1

Zosuquidar + Pictilisib = compound: O[C@@H](COc1cccc2ncccc12)CN1CCN([C@@H]2c3ccccc3[C@@H]3[C@H](c4ccccc42)C3(F)F)CC1 [Zosuquidar] + CS(=O)(=O)N1CCN(Cc2cc3nc(-c4cccc5[nH]ncc45)nc(N4CCOCC4)c3s2)CC1 [Pictilisib] (partner 1 µM)
Outline: as §1

Zosuquidar + Vorinostat = compound: O[C@@H](COc1cccc2ncccc12)CN1CCN([C@@H]2c3ccccc3[C@@H]3[C@H](c4ccccc42)C3(F)F)CC1 [Zosuquidar] + O=C(CCCCCCC(=O)Nc1ccccc1)NO [Vorinostat] (partner 1 µM)
Outline: as §1

| Cell Line | relative viability (Kobe2602 + Tozasertib; first compound 0.2 µM) | relative viability (Kobe2602 + Tozasertib; first compound 0.6325 µM) | relative viability (Kobe2602 + Tozasertib; first compound 2 µM) | relative viability (Kobe2602 + Tozasertib; first compound 6.325 µM) | relative viability (Kobe2602 + Tozasertib; first compound 20 µM) | relative viability (Cabozantinib + OSI-027; first compound 0.02 µM) | relative viability (Cabozantinib + OSI-027; first compound 0.06325 µM) | relative viability (Cabozantinib + OSI-027; first compound 0.2 µM) | relative viability (Cabozantinib + OSI-027; first compound 0.6325 µM) | relative viability (Cabozantinib + OSI-027; first compound 2 µM) | relative viability (Zosuquidar + Pictilisib; first compound 0.01 µM) | relative viability (Zosuquidar + Pictilisib; first compound 0.03162 µM) | relative viability (Zosuquidar + Pictilisib; first compound 0.1 µM) | relative viability (Zosuquidar + Pictilisib; first compound 0.3162 µM) | relative viability (Zosuquidar + Pictilisib; first compound 1 µM) | relative viability (Zosuquidar + Vorinostat; first compound 0.01 µM) | relative viability (Zosuquidar + Vorinostat; first compound 0.03162 µM) | relative viability (Zosuquidar + Vorinostat; first compound 0.1 µM) | relative viability (Zosuquidar + Vorinostat; first compound 0.3162 µM) | relative viability (Zosuquidar + Vorinostat; first compound 1 µM) |
| --- | --- | --- | --- | --- | --- | --- | --- | --- | --- | --- | --- | --- | --- | --- | --- | --- | --- | --- | --- | --- |
| 201T | 0.94 | 0.968 | 0.966 | 0.924 | 0.881 | 0.453 | 0.877 | 0.772 | 0.877 | 0.774 | 0.659 | 0.683 | 0.573 | 0.677 | 0.665 | 0.886 | 0.942 | 0.799 | 0.997 | 0.962 |
| A549 |  |  |  |  |  |  |  |  |  |  | 0.532 | 0.497 | 0.494 | 0.487 | 0.496 |  |  |  |  |  |
| A-427 | 0.233 | 0.242 | 0.198 | 0.229 | 0.218 | 0.375 | 0.537 | 0.468 | 0.486 | 0.472 | 0.665 | 0.538 | 0.567 | 0.91 | 0.77 | 0.86 | 0.853 | 0.836 | 0.94 | 0.511 |
| ABC-1 | 0.201 | 0.181 |  | 0.216 | 0.215 | 0.538 | 0.497 | 0.489 | 0.567 | 0.456 | 0.756 | 0.661 | 0.724 | 0.743 | 0.679 | 1.17 | 1.04 | 1 | 1.13 | 0.81 |
| BEN | 0.56 | 0.518 | 0.491 | 0.666 | 0.555 | 0.314 | 0.311 | 0.28 | 0.299 | 0.24 | 0.665 | 0.606 | 0.482 | 0.534 | 0.515 | 0.548 | 0.579 | 0.574 | 0.662 | 0.553 |
| CAL-12T | 0.292 | 0.282 | 0.248 | 0.21 | 0.244 | 0.588 | 0.688 | 0.711 | 0.715 | 0.645 | 0.349 | 0.494 |  | 0.533 | 0.423 | 0.843 | 0.692 | 0.77 | 0.813 | 0.845 |
| COR-L23 | 0.177 | 0.172 | 0.165 | 0.157 | 0.154 | 0.88 | 0.965 | 0.94 | 0.895 | 0.784 | 0.76 | 0.658 | 0.679 | 1.01 | 0.889 | 0.493 | 0.515 | 0.472 | 0.517 | 0.509 |
| COR-L 105 | 0.364 | 0.322 | 0.371 | 0.401 | 0.366 | 0.682 | 0.785 |  | 0.667 | 0.71 | 0.404 | 0.383 | 0.418 | 0.492 | 0.351 | 0.961 | 0.826 | 0.777 | 0.891 | 0.875 |
| Calu-6 |  |  |  |  |  |  |  |  |  |  | 0.855 | 0.942 | 1.02 | 0.976 | 0.918 |  |  |  |  |  |
| ChaGo-K-1 | 0.251 | 0.244 | 0.226 | 0.227 | 0.245 | 0.426 | 0.589 | 0.562 | 0.603 | 0.505 | 0.858 | 0.563 | 1.27 | 0.882 | 0.637 | 0.741 | 0.657 | 0.796 | 0.781 | 0.733 |
| EBC-1 |  |  |  |  |  |  |  |  |  |  | 0.41 | 0.52 | 0.395 | 0.458 | 0.377 |  |  |  |  |  |
| EKVX | 0.391 | 0.284 | 0.362 | 0.365 | 0.278 | 0.655 | 0.981 | 0.637 | 0.679 | 0.778 | 0.427 | 0.446 | 0.346 | 0.455 | 0.444 | 0.819 | 0.736 | 0.595 | 0.691 | 0.656 |
| EMC-BAC-2 | 0.286 | 0.297 | 0.286 | 0.333 | 0.32 | 0.337 | 0.379 | 0.398 | 0.385 | 0.361 | 0.511 | 0.524 | 0.47 | 0.635 | 0.508 | 0.457 | 0.438 | 0.489 | 0.528 | 0.258 |
| EPLC-272H | 0.224 | 0.305 | 0.291 | 0.302 | 0.409 | 0.257 | 0.326 | 0.215 | 0.345 | 0.29 | 0.308 | 0.344 | 0.311 | 0.272 | 0.35 | 0.464 | 0.606 | 0.399 | 0.503 | 0.74 |
| H3255 | 0.628 | 0.612 | 0.488 | 0.55 | 0.607 | 0.527 | 0.662 |  | 0.621 | 0.613 | 0.49 | 0.565 | 0.412 | 0.526 | 0.42 | 0.787 | 0.837 | 0.613 | 0.824 | 0.756 |
| HARA | 0.117 | 0.102 | 0.122 | 0.508 | 0.123 | 0.309 | 0.633 | 0.377 | 0.57 | 0.555 | 0.589 | 0.404 | 0.312 | 0.5 | 0.49 | 0.657 | 0.526 | 0.606 | 0.556 | 0.459 |
| HCC-15 | 0.351 | 0.377 | 0.299 | 0.425 | 0.431 | 0.477 | 0.744 | 0.66 | 0.657 | 0.622 | 0.686 | 0.778 | 0.753 | 0.801 | 0.854 | 0.844 | 0.745 | 0.716 | 0.894 | 0.877 |
| HCC-44 | 0.906 | 0.838 | 0.92 | 0.861 | 0.687 |  | 0.646 | 0.556 | 0.557 | 0.408 | 0.615 | 0.57 | 0.603 | 0.742 | 0.815 | 1.1 | 1.18 | 1.18 | 1.12 | 1.05 |
